{"source": "patent US7705022B2", "about": "“IDO inhibitors and methods of use thereof” (Lankenau Institute for Medical Research, priority 2005, dated 2010)", "key": {"IDO": {"target": "IDO", "conditions": "cited from earlier work; for type of IDO inhibition: literature"}, "human IDO": {"target": "human IDO (Homo sapiens, UniProt P14902)", "sequence (P14902 whole entry)": "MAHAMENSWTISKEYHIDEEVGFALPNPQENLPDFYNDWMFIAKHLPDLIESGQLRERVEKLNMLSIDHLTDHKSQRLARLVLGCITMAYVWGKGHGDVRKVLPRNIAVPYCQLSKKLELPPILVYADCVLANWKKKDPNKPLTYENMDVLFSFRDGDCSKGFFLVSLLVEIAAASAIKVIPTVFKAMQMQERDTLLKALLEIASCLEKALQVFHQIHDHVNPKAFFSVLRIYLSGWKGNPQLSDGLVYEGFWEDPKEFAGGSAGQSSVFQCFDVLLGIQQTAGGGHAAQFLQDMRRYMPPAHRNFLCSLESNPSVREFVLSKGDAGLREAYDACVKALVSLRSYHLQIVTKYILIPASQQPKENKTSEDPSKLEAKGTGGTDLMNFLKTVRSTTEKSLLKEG", "experiment": "IDO inhibition assay (formation of kynurenine, read at 490 nm)", "assay_type": "biochemical", "conditions": "for Ki / Ki (IDO inhibition data): average of two or three trials, inhibitors tested at 200 and 400 μM, L-Trp 200 to 25 μM, N.I. = no inhibition detected"}}}
{"molecule": "CCCCc1cc2c(cn1)[nH]c1ccccc12", "note": "[3-butyl-β-carboline]", "values": [{"measurement": "Ki", "setting": "IDO; literature value", "value": 3.3, "unit": "µM"}, {"measurement": "type of IDO inhibition", "setting": "IDO", "value": "non-competitive"}]}
{"molecule": "CSC(=S)NCCc1ccccc1", "note": "[Compound 9, N-Phenethyl-S-methyl-dithiocarbamate]", "values": [{"measurement": "IDO inhibitory activity in words", "setting": "human IDO", "value": "significant inhibitory activity"}, {"measurement": "Ki", "setting": "human IDO", "value": 62.4, "unit": "µM"}]}
{"molecule": "CNC(=S)NCc1c[nH]c2ccccc12", "note": "[Compound 19, N-[l-(Indol-3-yl)methyl]-N′-methyl-thiourea]", "values": [{"measurement": "melting point", "value": "148 to 150", "unit": "°C"}, {"measurement": "IDO inhibitory activity in words", "setting": "human IDO", "value": "weaker or no inhibition"}, {"measurement": "Ki (IDO inhibition data)", "setting": "human IDO", "value": "N.I.^a"}]}
{"molecule": "CSC(=O)NCc1c[nH]c2ccccc12", "note": "[Compound 21, Brassitin, reference compound]", "values": [{"measurement": "IDO inhibitory activity in words", "setting": "human IDO", "value": "complete loss in inhibitory activity"}, {"measurement": "Ki (IDO inhibition data)", "setting": "human IDO", "value": "N.I."}]}
{"molecule": "S=C(S)N1CCCC1", "note": "[pyrrolidine dithiocarbamate]", "values": [{"measurement": "effect on IDO in words", "setting": "IDO; literature report", "value": "inhibits IDO"}]}
{"molecule": "c1ccc2c(c1)[nH]c1cnccc12", "note": "[β-carboline]", "values": [{"measurement": "type of IDO inhibition", "setting": "IDO", "value": "non-competitive"}]}
{"molecule": "N-(Adamant-2-yl)-S-methyl-dithiocarbamate [Compound 6]", "values": [{"measurement": "Ki", "setting": "human IDO", "value": 180, "unit": "µM"}]}
